What all share (type): cell-based, human
The test system of assay [1] is Bulk PBMNC. Put plainly: S100+ cells in bulk PBMNC cultures with non-cytokine additives. As to conditions: for % S100+: Day 7; for TOTAL # OF S100+: Day 7, projected in culture. On the procedure: (§1) Immunocytochemical staining: PBS (phosphate buffered saline) was made by dissolving 5 PBS tablets into 1000 ml millipore water. Cytospin slides were soaked in PBS. Endogenous peroxidase activity was blocked by treating slides with hydrogen peroxide/PBS (2 ml 30% H2O2+30 ml PBS) for 10 min. Slides were rinsed with PBS one time. Non-specific binding sites were blocked by incubating with normal serum matching source of secondary antibody (i.e. if secondary antibody is biotinylated goat-anti-mouse, used normal goat serum) at room temp. for 15 min. in a humidified environment. Excess serum was shaken from slides and placed 100 ul of primary antibody on slide, making sure cells are covered with liquid and incubated in humidified environment, room temp, for one hour. Negative control slides were incubated with normal serum for this hour. Slides were rinsed 3 times with PBS. Slides were incubated with biotinylated antibody reactive against the primary antibody (i.e. if primary antibody is mouse-anti-human, use a biotinylated goat-anti-mouse antibody) for 1 hour in humidity. Slides were rinsed 3 times with PBS. Slides were incubated with streptavidin-peroxidase, 2 drops/slide, for 30 min. in humidity. Slides were rinsed 3 times with PBS.
(§2) Chromagen solution was made with 5 ml millipore water+2 drops of chromagen buffer+1 drop of concentrated chromagen+1 drop of substrate, and 4-5 drops were added to each slide. […] Slides were counterstained with hematoxylin for about 5 min, or until cell nuclei were stained purple. Cells were rinsed with tap water and allowed to air dry. Slides were covered with crystal mount and oven dried at 80 degrees for 15 min. Slides were allowed to cool, then coversliped with mounting medium.
(§3) Culture of Bulk PBMNC: PBMNC cells were cultured in X-VIVO 15™ supplemented with 2 mM L- glutamine. Cultures were initiated at 5×^05 cells/ml in PL2417 gas-permeable containers (20 ml). GM-CSF and IL-4 were added to the cultures at final concentrations of 50 ng/ml and 1000 U/ml or non-cytokine additives such as Vitamin D3 at 2.5 uM, Vitamin E at 0.1%, Linoleic Acid at 5 ug/ml, or Ca++ Ionophore at 10 mM. Addition and subtraction of cells, media, and growth factors to and from PL2417 gas-permeable containers was accomplished by spiking a Sampling Site Coupler into the sample port of the container followed by use of syringes and needles. Cells were cultured in a 5% CO2, ambient O2, 37° C. humidified incubator for 7 days.
(§4) Cytospin slide preparation, Wright-Geimsa and immunohistochemical staining of the cultured cells were conducted as described in Example 1 and 2 above. Mixed lymphocyte reactions (MLR's) were setup using T cells (responders) and dendritic cell enriched cultures (stimulators) from bulk PBMNC cultures, as described above in Example 1.
The S100 protein is a nerve cell protein that has been associated with dendritic cells. In Table 47, at day 7 of culture, the highest percent of S100+ cells was present in the GM-CSF/IL-4 culture (13%).

The subject of assay [2] is adherent PBMNC. As to the kind of experiment: DC morphology (Wright-Geimsa) of plastic adherent cells cultured with non-cytokine additives. The procedure: (§5) Cytofunnels were attached to microscope slides. 50,000 to 100,000 cells were removed from each culture and resuspended in approximately 100 to 200 ul of PBS-CMF. Slides were placed in the Cytospin® centrifuge and spun at 100 rpm for 4 min. Cytofunnels were removed from the slides and the slides were air dried for 1 minute. Ten drops of Wright-Geimsa stain were placed onto each slide and allowed to fix for 1 to 2 minutes. Ten drops of water were added to each slide and allowed to sit for 2 to 4 minutes. The slides were rinsed and air dried.
(§6) Reading of Cytospin Slides: Slides were read under phase contrast microscopy, 40× and 60× oil magnification. One hundred cells were identified and characterized morphologically as either dendritic cells or non-dendritic cells (lymphocytes and monocyte, or CD34+-derived cells in those cases). Digital images were taken using a color monitor and color video printer.
(§7) Enrichment and Culture of Adherent Cells Using Polystyrene Tissue Culture Plates: PBMNC were resuspended in culture media (X-VIVO 15™+10% autologous serum) at 2×10^6 cells/ml. Cells were placed into 48 well polystyrene tissue culture plates […] and incubated for 2 hours in a 5% CO2, ambient O2, 37° C. humidified incubator. Non-adherent cells were removed from the plates then wells were rinsed with X-VIVO 15™ containing no serum. Cells remaining in the wells were adherent cells. These cells were cultured by adding 2 ml of X-VIVO 15™ to each well plus GM-CSF and IL-4 at final concentrations of 50 ng/ml and 1000 U/ml or the following: cAMP at 0.5 mM, dibutyryl cAMP at 0.1 mM, NaF at 0.25 mM, theophylline at 0.5 mM, PGE at 0.1 mM, Vitamin D3 at 2.5 uM, Vitamin E at 0.1%, Retinoic Acid at 10^−6 M, PMA at 1 pM, Linoleic Acid at 5 ug/ml, or Ca^++ Ionophore at 10 mM. Furthermore, cells were also cultured with the above non-cytokine additives plus GM-CSF at 50 ng/ml. Cells were cultured in a 5% CO2, ambient O2, 37° C. humidified incubator for 7 days.
as §4
(§8) Results: In the set of experiments using plastic adherent cells grown in polystyrene tissue culture plates, a Day 0 analysis of the cells was not performed. However, these cultures were analyzed for the presence of DC on days 4 and 7. Analysis perfomed were cell counts, viability via propidium iodide, morphology under Wright-Geimsa staining, and immunohistochemical staining using an anti-S100 antibody.

Assay [3] has as its system adherent PBMNC. Put plainly: S100 immunohistochemistry of plastic adherent cells cultured with non-cytokine additives. The procedure:
as §1, with “Endogenous peroxidase activity was blocked by treating slides with hydrogen peroxide/PBS (2 ml 30% H2O2+30 ml PBS) for 10 min.” left out
as §2, §7, §4, §8

The subject of assay [4] is adherent PBMNC. Put plainly: Cell counts and viability of plastic adherent cells cultured with non-cytokine additives in polystyrene plates. Further details: % VIABLE: concentration or dose not given beside the values. Conditions: for % VIABLE: propidium iodide. On the procedure: Viability Determination: Prior to acquisition, 5 ul propidium iodide (PI) was added to each tube for use as a viability check. The cells were vortexed and acquired within 10 min of PI addition.
as §7, §8

In assay [5] the test system is Bulk PBMNC. As to the kind of experiment: Concentration, viability and total cells of bulk PBMNC cultured with non-cytokine additives in PL2417. Conditions: Day 7, PL2417 container, X-VIVO 15. On the procedure: as §3
The next set of experiments evaluated only 4 of the non-cytokine additives. These 4 were determined to have the highest ability to induce DC generation from PBMNC. The 4 non-cytokine additives examined were Vitamin D3, Vitamin E, Ca^++ Ionophore, and Linoleic Acid. These additives were compared to GM-CSF/IL-4. Bulk PBMNC were initiated at 5×10^5 cells/ml in X-VIVO 15™ using PL2417 gas-permeable containers (20 ml per container).

For assay [6], the system named is Bulk PBMNC. As to the kind of experiment: Morphologically identified dendritic cells in bulk PBMNC cultures with non-cytokine additives. Conditions: for % DC: Day 7; for TOTAL # OF DC: Day 7, projected in culture. The procedure: as §5, §6, §3, §4
The subject of assay [7] is Bulk PBMNC. Put plainly: Flow cytometry phenotype of bulk PBMNC cultures with non-cytokine additives. As to conditions: Day 7. On the procedure:
as §3
Cultured cells were phenotyped as described in Example 1 above for the following markers: […]
On the technique in general: In flow cytometry, cells or beads pass a laser one at a time.

In another assay the test system is T cells. As to the kind of experiment: Allogeneic MLR with bulk PBMNC cultures grown with non-cytokine additives. The procedure: MLR's were setup using T cells as responders and dendritic cell enriched cultures as antigen presenters. Sheep red blood cells were prepared and used to erythrocyte rosette T cells from a MNC preparation as described in “Current Protocols in Immunology”, John Wiley & Sons Inc, 1995. Vol. 2, 7.2.1-7.2.4. Erythrocyte+(E+ ) T cells were resuspended to 1×10^6 cells/ml in RPMI 1640/10% FCS. Dendritic cells were resuspended to 1×10^6 cells/ml in RPMI 1640/10% FCS and mitomycin C was added at 25 ug/ml to inhibit proliferation. The tubes were incubated at 37° C. for 30 min. then washed 3 times with PBS-CMF/1% HA. […] […] The appropriate control wells were also prepared. Plates were incubated for 4 or 5 days at 37° C.
Each well was pulsed with 1 uCi of ^3H-thymidine in RPMI 1640/10% FCS. Plates were incubated overnight at 37° C.
Plates were harvested onto glass fiber filter strips using a cell harvester. Discs were placed into scintillation vials containing scintillation cocktail and samples were counted using a beta radiation counter.
as §4
The functional capacity of cultured cells to induce T cell proliferation was measured in an allogeneic MLR. […] At the greatest ratio of 1:100, the differences in capacity to induce T cell proliferation is marginal between the GM-CSF/IL-4 cultured cells and the non-cytofine additive cultured cells.

[8] abbreviates: Day 7, Cell Culture:T cell Ratio 1:1.
[9] abbreviates: Day 7, Cell Culture:T cell Ratio 1:10.
[10] abbreviates: Day 7, Cell Culture:T cell Ratio 1:100.

Turning to `CNc1ccc2oc(CC3OC4(CCC3C)OC(C(C)C(=O)c3ccc[nH]3)C(C)CC4C)nc2c1C(=O)O` (stereo not drawn) [Ca ++ Iono], the “% S100+” value in the assay on Bulk PBMNC [1] is 7.50%; in the assay on adherent PBMNC [3] (Day 4, without GM-CSF) it was 17.00%; with adherent PBMNC [3] (Day 7, with GM-CSF present) it was 26.50%. For the same compound, the “TOTAL # OF S100+” value with Bulk PBMNC [1] came out at 6.17E + 05. Besides, the “% DC” value with adherent PBMNC [2] (Day 4, without GM-CSF) is given as 2.50%; with adherent PBMNC [2] (Day 7, with GM-CSF present), 4.50%. The “TOTAL CELLS” value in the assay with adherent PBMNC [4] (Day 4, without GM-CSF) is listed as 1.69E + 05; with adherent PBMNC [4] (Day 7, with GM-CSF present), 1.05E + 05; in the assay with Bulk PBMNC [5] it was 8.29E + 06. For the same compound, the “% VIABLE” value was determined as 74.04% in the assay on adherent PBMNC [4] (Day 4, without GM-CSF) and 82.69% in the assay with adherent PBMNC [4] (Day 7, with GM-CSF present). In addition, the CELLS/ML in the assay on Bulk PBMNC [5] worked out at 2.22E + 06 cells/ml. The compound also showed a VIABILITY with Bulk PBMNC [5] of 83.72%.
In the case of `Cc1c(C)c2c(c(C)c1O)CCC(C)(CCCC(C)CCCC(C)CCCC(C)C)O2` (mixture of isomers) [VIT E], in the assay on Bulk PBMNC [6], the “% DC” value worked out at 4.00% and the “TOTAL # OF DC” value is 2.82E+05. In the assay on Bulk PBMNC [1], the “% S100+” value is 8.00% and the “TOTAL # OF S100+” value is 6.01E + 05. In the assay on Bulk PBMNC [7], the “Percent of Phenotype in Culture: CD1a-PE” value came out at 0.08%, the “Percent of Phenotype in Culture: CD14-PE” value turned out to be 0.73%, the “Percent of Phenotype in Culture: CD80-PE” value is 1.97% and the “Percent of Phenotype in Culture: CD86-PE” value is listed as 2.75%. Moreover, the “Allogeneic MLR. Increase Over Background Proliferation” value in the assay on T cells (setting [8]) was found to be 6.3. The “Allogeneic MLR. Increase Over Background Proliferation” value with T cells (setting [9]) came to 2.6. The “Allogeneic MLR. Increase Over Background Proliferation” value with T cells (setting [10]) worked out at 1.7. For the same compound, in the assay on Bulk PBMNC [5], the CELLS/ML turned out to be 1.87E + 06 cells/ml, the “TOTAL CELLS” value is recorded as 7.52E + 06 and the VIABILITY was 82.41%.
In the case of `C=C1CCC(O)CC1=CC=C1CCCC2(C)C1CCC2C(C)CCCC(C)C` (stereo not drawn) [VIT D3], in the assay with Bulk PBMNC [6], the “% DC” value is recorded as 6.50% and the “TOTAL # OF DC” value is listed as 5.12E+05. In addition, in the assay on Bulk PBMNC [1], the “% S100+” value was determined as 5.00% and the “TOTAL # OF S100+” value stood at 4.16E + 05. For the same compound, in the assay with Bulk PBMNC [7], the “Percent of Phenotype in Culture: CD1a-PE” value came out at 0.10%, the “Percent of Phenotype in Culture: CD14-PE” value is recorded as 0.53%, the “Percent of Phenotype in Culture: CD80-PE” value worked out at 2.65% and the “Percent of Phenotype in Culture: CD86-PE” value is 2.62%. In addition, the “Allogeneic MLR. Increase Over Background Proliferation” value in the assay on T cells (setting [8]) is recorded as 6.9. The “Allogeneic MLR. Increase Over Background Proliferation” value in the assay on T cells (setting [9]) is recorded as 2.7. Moreover, the “Allogeneic MLR. Increase Over Background Proliferation” value with T cells (setting [10]) is given as 1.4. Also, in the assay on Bulk PBMNC [5], the CELLS/ML is 2.11E + 06 cells/ml, the “TOTAL CELLS” value turned out to be 8.04E + 06 and the VIABILITY is 84.51%.
Consider `CCCCC/C=C\C/C=C\CCCCCCCC(=O)O` [Linoleio Acid], for which, in the assay on Bulk PBMNC [1], the “% S100+” value worked out at 8.50% and the “TOTAL # OF S100+” value is 7.75E + 05. Moreover, in the assay on Bulk PBMNC [5], the “TOTAL CELLS” value stood at 9.18E + 06 and the VIABILITY stood at 87.77%.
